From patent US11083714B2, “Selective anti-cancer agent effective for prevention and treatment” (Molecular International Research, Inc., priority 2018, dated 2021)
Entries after “also recorded” stand apart in the source; their conditions may differ.

Tests used:
[1] = tested on: OVCAR-5, SHIN-3, OVCAR-8; experiment: MTT cell viability, ovarian cancer cell lines; assay type: cell-based, human; settings: 48 hr
Procedure: (§1) FIG. 7. Dose-response curves for cell viability of human ovarian cancer cell lines OVCAR-5 (triangles), SHIN-3 (squares), and OVCAR-8 (lozenges) exposed to de-ethylflavopereirine. Cells were cultured in the presence of increasing concentrations of the compound for 48 hr and cell viability was determined by MTT assay. MRC-5 (crosses), an immortalized, normal human […] cell line, was used as a control.
(§2) De-ethylflavopereirine was tested for its activity against ovarian, pancreatic, brain, and colon cancer cell lines. […] Cytotoxicity is assayed by reducing a yellow tetrazolium dye, 3-(4,5-dimethylthiazol-2-yl)-2,5-diphenyltetrazolium bromide (MTT), to insoluble purple formazan. The MTT assay is a colorimetric assay for determining the number of viable cells.

[2] = tested on: MRC-5; experiment: MTT cell viability, normal control cell line; assay type: cell-based, human; settings: MRC-5, 48 hr
Procedure: as §1
FIG. 8. Dose-response curves for cell viability of human pancreatic cancer cell lines MIA PaCa (squares), PANC-1 (lozenges), BxPc (crosses), and AsPc (triangles) exposed to de-ethylflavopereirine. Cells were cultured in the presence of increasing concentrations of the compound for 48 hr and cell viability was determined by MTT assay. MRC-5 (asterisks) was used as a control.
as §2

[3] = tested on: HT-29; experiment: Viability of bioluminescent HT-29 colon cancer cells; assay type: cell-based, human; settings: HT-29, luminescence
Description: FIG. 10. Dose-response curve for human colon cancer cell line HT-29 exposed to either de-ethylflavopereirine (squares) or Pao pereira plant extract (triangles) containing flavopereirine and at least one other anti-cancer compound, dihydroflavopereirine. The bioluminescent HT-29 cell line was used.
A bioluminescent line was used enabling viability to be assessed by luminescence. In this case, the activity of compound 13-9-1 was compared with a Pao pereira extract containing flavopereirine and at least one other anti-cancer compound.

[4] = tested on: PANC-1 pancreatic cancer cells; experiment: Cleavage of Caspase-3, Caspase-8 and PARP; assay type: cell-based; settings: 0-20 μM for 48 hours; 20 μM for 0-48 hours
Description: FIG. 12. Cleavage of Caspase-3, Caspase-8, and PARP confirms that de-ethylflavopereirine induces apoptosis in PANC-1 pancreatic cancer cells. Beta-actin was used as a control.
Induction of apoptosis was also shown by detection of Caspase-8, Caspase-3, and PARP cleavage products. The cleaved protein products are identified in FIG. 12 by arrows adjacent to the right panel. The accumulation of these proteolytic fragments is a biochemical signature for apoptotic cell death.

[5] = tested on: PANC-1 cancer stem cells; experiment: Tumor formation of PANC-1 cancer stem cells (FIG. 27); assay type: in vivo, mice; settings: 2×10^5 pre-treated PANC-1 cells
Procedure: FIG. 27. Reduction of tumor formation by de-ethylflavopereirine. Compound 13-9-1 reduced tumor formation of PANC-1 cancer stem cells.
Mice were then treated with de-ethylflavopereirine for 20 days after injection. […] Maximum tumor formation rate reached 80% at day 39, which is a highly significant difference compared to control (P=0.001 by log-rank test).

[6] = Alcohol-induced chronic pancreatitis model; assay type: in vivo; settings: mice given ethanol and compound in the daily diet
Description: FIG. 29. Effects of de-ethylflavopereirine in a mice model of alcohol-induced chronic pancreatitis. Paraffin sections of the pancreas were stained with hematoxylin and eosin. […] This tissue protection was quantitated with an injury score (FIG. 29B). Ly6G was elevated four-fold in the pancreas of mice given ethanol while the number of neutrophils was not elevated in mice given ethanol and compound 13-9-1 (FIG. 29C).
Daily administration of ethanol to mice was followed by a binge of ethanol administration, a regimen relevant to human consumption. In the experimental group, de-ethylflavopereirine was included in the daily diet throughout the course of the experiment. There were two control groups: animals that were given no alcohol (negative control) and animals given alcohol without receiving the compound 13-9-1 (positive control). Following 10 days of alcohol treatment, the animals were gavaged with alcohol for 8 hours then euthanized, and their pancreatic tissues were collected. Pancreatic tissue sections were analyzed for histology and isolated RNA was used for quantitative PCR.

Q: Which cell viability [1] does the source give for `c1ccc2c(c1)[nH]c1c2cc[n+]2ccccc12` [Compound 13-9-1, 12H-indolo[2,3-a]quinolizin-5-ium] here?
A: The cell viability was “dose-dependent decrease in cancer cell viability”.

Q: What about the “toxicity to noncancerous cells compared with cancer cells” value [2] of the same molecule?
A: Its value is “significantly less toxic”.

Q: And the “activity compared with Pao pereira extract” value [3]?
A: Its value is “active at much lower concentrations than the plant extract”.

Q: And the “cleavage of Caspase-3, Caspase-8 and PARP” value [4]?
A: Its value is “dose- and time-dependent”.

Q: What about the tumor formation ([5]; Day 20) of the same molecule?
A: Its tumor formation is 55%.

Q: And the “maximum tumor formation rate” value ([5]; Day 39)?
A: Its value is 80%.

Q: And the “Ly6G level / number of neutrophils in the pancreas” value [6]?
A: Its value is “not elevated”.

Q: What about the injury score [6] of the same molecule?
A: Its injury score is “completely prevented injury”.

Q: What about the “pancreatic tissue damage (histology)” value [6] of the same molecule?
A: The value was “prevented; also recorded: no tissue damage”.

Q: What about the “Ly6G level / number of neutrophils in the pancreas” value ([6]; listed as de-ethylflavopereirine) of the same molecule?
A: Its value is “completely normal Ly6G level”.
